US4937346A, “Phenyl-azacykloalkanes” (Carlsson; Per Arvid Emil, priority 1979, dated 1990)
Entries after “also recorded” stand apart in the source; their conditions may differ.

Legend:
[1] = test system: presynaptic dopaminergic receptor (autoreceptor); test: Spontaneous exploratory motor activity of rats, enantiomers of 3-PPP; assay type: in vivo, rat
Protocol: 1. Evidence for presynaptic dopaminergic receptor (autoreceptor) agonist activity of both enantiomers of 3-PPP. Both enantiomers of 3-PPP cause a dose-dependent decrease in spontaneous exploratory motor activity of rats. […] However, the (+)-enantiomer causes a decrease only after doses between 0.25 and 4 mg/kg s.c.

[2] = test system: postsynaptic dopaminergic receptor; test: Antagonism of apomorphine-induced locomotor stimulation; assay type: in vivo, rat
Protocol: 3. Evidence for postsynaptic dopminergic receptor antagonist activity of (-)-3-PPP.
The locomotor stimulating action of the dopamine receptor aqonist apomorphine is antagonized by (-)-3-PPP. […] Thus the postsynaptic receptor antagonist activity requires a larger dose than the presynaptic receptor agonist activity, which is evident after doses down to 0.25 mg/kg.
Further, (-)-3-PPP and racemic 3-PPP have been compared regarding antagonism of apomorphine-induced locomotor stimulation. Either form of 3-PPP was injected subcutaneously in a dose of 8 mg/kg 20 min and apomorphine in a dose of 1 mg/kg subcutaneously 5 min before placing the rats in the Motron for 30 min. Shown are the counts per 30 min., means± s.e.m. and number of experiments (n).

[3] = test system: dopaminergic receptors (presynaptic and postsynaptic); test: Dopaminergic receptor profile of 3-PPP and its enantiomers (summary of tests); assay type: in vivo; conditions: summary of enantiomer tests
Source text: The two enantiomers of 3-PPP have now been tested separately.

[4] = test system: postsynaptic dopaminergic receptors; test: Locomotor activity in reserpine-treated rats, enantiomers of 3-PPP; assay type: in vivo, rat; conditions: reserpine-treated rats; (+)-form 0.25 to 64 mg/kg
Source text: 2. Evidence for postsynaptic dopaminergic receptor agonist activity of (+)-3-PPP.

dopa formation = test: Dopa formation and dopamine metabolite levels in rats not pretreated with GBL or reserpine; assay type: in vivo, rat
[5] = test system: presynaptic dopaminergic receptors and postsynaptic dopaminergic receptors; test: Antagonism of the locomotor stimulating activity of (+)-amphetamine; conditions: in vivo
Source text: This effect is probably the result of the simultaneous stimulation of presynaptic dopaminergic receptors and partial blockade of postsynaptic dopaminergic receptors. All the major antipsychotic agents in current use are potent amphetamine antagonists, and such activity is considered to be predictive of antipsychotic action.

SMILES: CCCN1CCCC(c2cccc(O)c2)C1.Cl (single isomer, unassigned; (-)) [(-)-3-PPP, (-)-3-(3-Hydroxyphenyl)-N-n-propylpiperidine hydrochloride]
- effect on locomotor activity over dose range ([1]; doses between 0.053 and 64 mg/kg s.c.): a decrease after all these doses, with no reversal of the effect after larger doses
- doses down to which presynaptic receptor agonist activity is evident ([1]; presynaptic receptor agonist activity): 0.25 mg/kg
- decrease of locomotor activity to % of control ([1]; s.c., first 30 min): 30-40 % of control
- antagonism of apomorphine locomotor stimulation ([2]; 2 mg/kg): not after 2 mg/kg
- counts per 30 min., with apomorphine ([2]; 8 mg/kg s.c. + apomorphine 1 mg/kg s.c., means ± s.e.m., n=5): 276 ± 50 counts per 30 min.
- antagonism of apomorphine locomotor stimulation ([2]; 8 mg/kg s.c., hydrochloride): clearcut; also recorded: antagonized said stimulation
- activity on presynaptic and postsynaptic dopaminergic receptors [3]: capable of activating the presynaptic dopaminergic receptors (autoreceptors) but concomitantly reduced the sensitivity of the postsynaptic dopaminergic receptors to dopaminergic agonists
- stimulation of locomotor activity [4]: only a very weak stimulation of motor activity
- dopa formation, limbic region (dopa formation; 0.053 to 64 mg/kg, no pretreatment, limbic region): no change
- dopa formation, striatum (dopa formation; 0.053 to 64 mg/kg, no pretreatment, striatum): increase
- levels of 3,4-dihydroxyphenyl acetic acid and homovanillic acid (dopa formation; matched to the changes in dopa formation): corresponding changes in the levels of the dopamine metabolites
- dopa formation and dopamine metabolite levels in rat striatum (dopa formation; rat striatum): stimulate dopa formation and to raise dopaminemetabolite levels in rat striatum
- antagonism of (+)-amphetamine locomotor stimulating activity [5]: striking antagonistic action
